Where “and” joins values, the source holds several entries; their conditions need not be identical. Identical values can stand only once. Like-named read-outs stand apart in the source and are kept apart here. Peptide text beside a SMILES is read from it.
Legend:
[1] = Sensory test: degree of sweetness compared with sucrose (sugar) solution; conditions: for Degree of sweetness (multiplying power of sweetness): compared with a 4 to 5% sucrose solution
Text: The derivative of the invention, i.e., the compound and the form of the salt thereof of the invention was proven to have strong sweetness with a quality of sweetness that is similar to sugar, as a result of a sensory test. For example, the degree of sweetness of 2-amino-4,5-dihydroxy-4-(3-indolylmethyl)pentanoic acid (mixture of the (2S,4S) isomer and (2R,4R) isomer at a ratio of 1:1) was about 1250 times as high as that of sugar, and the degree of sweetness of (2R,4R)-2-amino-4-hydroxy-4-ethylcarbamoyl-4-(3-indolylmethyl)butyric acid was about 1600 times as high as that of sugar. […] Structure and results of the sensory test on several synthesized amino acid derivatives (represented by the following formula (1)) are presented in Table 1.

[2] = Stability (half life) in aqueous acidic solution, citrate buffer pH 3, 70° C.; format: physicochemical; conditions: citrate buffer solution of pH=3, at 70° C.
[3] = (2S,4S) isomer derived from natural plant; literature report; cited from earlier work
[4] = compared with a 5% sugar solution

half-life [2] | Compound | Degree of sweetness (multiplying power of sweetness) [1] | Degree of sweetness [1, 4] | Degree of sweetness ([1]; sensory test) | Degree of sweetness [3]
 | NC(CC(O)(CO)Cc1c[nH]c2ccccc12)C(=O)O (mixture of isomers) [Compound No. 3, (2S,4S)- and (2R,4R)-2-amino-4,5-dihydroxy-4-(3-indolylmethyl)pentanoic acid mixture] | about 1250 | About 1250 times | about 1250 times as high as that of sugar | 
~35 h | COC(=O)[C@H](Cc1ccccc1)NC(=O)[C@@H](N)CC(=O)O [aspartame, reference compound] (H-Asp-Phe-OMe) |  |  |  | 
~97 h | CCNC(=O)[C@@](O)(Cc1c[nH]c2ccccc12)C[C@@H](N)C(=O)O [Compound No. 8, (2R,4R)-2-amino-4-hydroxy-4-ethylcarbamoyl-4-(3-indolylmethyl)butyric acid] | about 1600 | About 1600 times | about 1600 times as high as that of sugar | 
 | Cc1ccc2c(CC(O)(C[C@H](N)C(=O)O)C(=O)O)c[nH]c2c1 (stereo partly drawn) [Compound No. 2, 4-hydroxy-4-(6-methylindole-3-ylmethyl)glutamic acid] | about 650 | About 650 times |  | 
 | N[C@@H](C[C@@](O)(Cc1c[nH]c2ccccc12)C(=O)O)C(=O)O [monatin, (2S,4S)-2-amino-4-carboxy-4-hydroxy-5-(3-indolyl)pentanoic acid] |  |  |  | 800 times of sucrose and 1400 times of sucrose
 | CCC(O)(Cc1c[nH]c2ccccc12)CC(N)C(=O)O (stereo not drawn) [Compound No. 6, 2-amino-4-hydroxy-4-(3-indolylmethyl)hexanoic acid] | about 500 | About 500 times |  | 
 | CC(O)(Cc1c[nH]c2ccccc12)CC(N)C(=O)O (stereo not drawn) [Compound No. 5, 2-amino-4-hydroxy-4-(3-indolylmethyl)pentanoic acid] | about 900 | About 900 times |  | 
 | N[C@H](C[C@H](Cc1c[nH]c2ccccc12)C(=O)O)C(=O)O [Compound No. 1, (2R,4S)-2-amino-4-(3-indolyl)methyl pentandioic acid] | about 200 | About 200 times |  | 
 | NC(CC(O)(CO)Cc1c[nH]c2ccccc12)C(=O)O (mixture of isomers) [Compound No. 4, (2S,4R)- and (2R,4S)-2-amino-4,5-dihydroxy-4-(3-indolylmethyl)pentanoic acid mixture] | about 750 | About 750 times |  | 
 | CNC(=O)[C@@](O)(Cc1c[nH]c2ccccc12)C[C@@H](N)C(=O)O [Compound No. 7, (2R,4R)-2-amino-4-hydroxy-4-methylcarbamoyl-4-(3-indolylmethyl)butyric acid] | about 200 | About 200 times |  | 

Reference: patent US7244462B2, “Amino acid derivative and sweetening agent” (Ajinomoto Co., Inc., priority 2003, dated 2007)
